Data set [1] has as its target T1, CviR (Chromobacterium violaceum, UniProt D3W065). The note with it: CviR expressed in E. coli, whole cell vs soluble extract, ligand 50 μM. On the procedure:
CviR Overexpression and Purification. CviR was overexpressed in BL21(DE3) pLysS by growing an overnight culture in LB supplemented with 100 μg/mL ampicillin and 10 μg/mL chloramphenicol. The culture was diluted 1:50 into fresh LB supplemented with 100 μg/mL ampicillin and 10 μg/mL chloramphenicol and grown shaking at 37° C. to an OD600 of 0.4. Various AHL or antagonist molecules were added to at 50 μM and incubated an additional 30 minutes at 30° C., after which expression was induced by the addition of 100 μM IPTG (isopropyl-β-D-thiogalactopyranoside) for 4 hours at 30° C. Cells were harvested by centrifugation and lysed in 20 mM imidazole pH 8.0, 100 mM NaCl, 0.5 mM EDTA and 5% glycerol via a Micro-fluidizer processor (MicroFluidics). Protein was purified via ion-exchange using a Hitrap Heparin HP column (GE Healthcare). Protein was eluted with a 100 mM to 1 M NaCl gradient. Fractions containing CviR were pooled and diluted in lysis buffer devoid of NaCl, and then further purified by cation exchange chromatography using a Hitrap SP HP column (GE Healthcare). CviR was eluted with a 100 mM to 1 M NaCl gradient.
The solubility characteristics of CviR were analyzed in the presence of the various molecules under study. […] As controls, the protein was also expressed in the absence of any AHL or antagonist. In each case, whole cell and soluble fractions of cell lysates were analyzed by SDS-PAGE to assess whether the CviR protein in question had been stabilized.

The target of data set [2] is T2, LuxN (Vibrio campbellii, UniProt A7MRY4).
T2 construct: Light production from wild type V. harveyi (BB120), a luxPQ mutant (BB960), and a luxPQ, luxS double mutant (JMH624) was measured; endogenous in cells; host or cells: V. harveyi BB120, BB960 (luxQ::Tn5), JMH624 (ΔluxM, luxQ::Tn5)
T2 sequence (A7MRY4 whole entry): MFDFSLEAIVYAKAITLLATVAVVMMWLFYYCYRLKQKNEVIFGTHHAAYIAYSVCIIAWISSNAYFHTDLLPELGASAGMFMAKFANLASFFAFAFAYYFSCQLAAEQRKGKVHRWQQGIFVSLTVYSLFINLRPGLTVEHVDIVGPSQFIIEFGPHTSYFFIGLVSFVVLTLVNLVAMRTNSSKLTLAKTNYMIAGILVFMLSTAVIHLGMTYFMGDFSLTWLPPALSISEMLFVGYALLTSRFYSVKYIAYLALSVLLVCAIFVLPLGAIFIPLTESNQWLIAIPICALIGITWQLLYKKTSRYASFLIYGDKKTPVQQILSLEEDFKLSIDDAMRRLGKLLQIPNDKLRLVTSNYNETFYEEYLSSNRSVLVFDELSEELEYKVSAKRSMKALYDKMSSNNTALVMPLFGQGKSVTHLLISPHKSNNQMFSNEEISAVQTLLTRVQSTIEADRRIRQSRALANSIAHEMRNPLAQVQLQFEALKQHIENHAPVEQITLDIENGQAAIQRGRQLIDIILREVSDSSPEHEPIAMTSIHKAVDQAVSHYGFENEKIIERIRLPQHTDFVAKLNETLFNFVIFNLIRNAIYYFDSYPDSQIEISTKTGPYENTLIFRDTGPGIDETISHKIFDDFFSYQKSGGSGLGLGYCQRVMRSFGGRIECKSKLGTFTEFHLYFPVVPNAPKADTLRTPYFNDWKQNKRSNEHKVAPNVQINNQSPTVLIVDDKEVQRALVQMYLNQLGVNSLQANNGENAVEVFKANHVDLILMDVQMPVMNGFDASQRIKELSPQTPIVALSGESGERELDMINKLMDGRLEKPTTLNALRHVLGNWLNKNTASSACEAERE
The data set is described as follows: V. harveyi bioluminescence dose-response. The class given is cell-based, Vibrio harveyi. The conditions noted are these: IC50 for inhibition of bioluminescence. On the procedure:
Wild type C. violaceum strain ATCC31532 was purchased from the ATCC. The cviI mutant strain, CV026 was kindly supplied by Clay Fuqua and Paul Williams. C. violaceum strains were grown aerobically at 30° C. in either Luria-Bertani broth or Nutrient Broth supplemented with 1 mM trypotophan. V. harveyi strains were grown aerobically at 30° C. in autoinducer bioassay (AB) broth. AI-1 dose-response curves were generated in V. harveyi strains BB120, BB960 and JMH624 as described. E. coli was grown at 37° C. in Luria Bertani broth. The plasmid pET23b (Novagen) was used for expressing cviR in E. coli strain BL21-Gold (DE3) or BL21(DE3) pLysS (Stratagene) and maintained by inclusion of Ampicillin at 100 μg/ml. Plasmid pEVS141 was used for the vioA-gfp promoter fusion and maintained with 50 μg/ml of Kanamycin. C. elegans wild type strain, N2 was used for all of the nematode infection studies. Worms were propagated on Nematode Growth Media (NGM) medium with an E. coli OP50 lawn as the food source and allowed to multiply at 20° C.
To determine the properties of CTL and CL in relation to the LuxN receptor, the in vivo activity was examined of 4606-4237, CTL, and CL for V. harveyi LuxN using dose response analyses of the endogenous quorum-sensing-activated target, bioluminescence. Three different V harveyi strains were examined (1) The wild type V. harveyi strain BB120 which has multiple quorum-sensing circuits, and thus responds to multiple autoinducers, only one of which is the AHL acting through LuxN. (2) V. harveyi BB960 which lacks the receptor for the second autoinducer making the AHL-LuxN circuit the dominant input into bioluminescence expression. (3) V. harveyi JMH624 which, in addition to lacking the receptor for the second autoinducer lacks the AHL synthase LuxM. Thus, V. harveyi JMH624 induces bioluminescence exclusively in response to the AHL, 3OH-C4-HSL signal but only when it is supplied exogenously. Exogenous addition of 20 nM 3OH-C4-HSL is sufficient to induce maximal bioluminescence in all of these strains.

Data set [3] deals with T1, CviR. The data set is described as follows: cell-based. The arrangement: made in house; host or cells: E. coli BL21(DE3) pLysS, plasmid pET23b. The class given is cell-based. On the procedure: The vioA-gfp promoter fusion was constructed by amplifying the vioA promoter and cloning this region upstream of gfp in pEVS141 at the SphI and SalI sites. Cells containing the vioA-gfp construct were electroporated with the pET23 carrying cviR and selected on LB medium supplemented with 75 μg/mL ampicillin and 50 μg/mL kanamycin. The E. coli strain containing cviR and the vio:gfp reporter is named ELS1257.
E. coli strains were grown overnight in LB medium with antibiotics at 37° C. and sub-cultured into fresh medium at a 1:100 dilution. Various AHL and antagonists were added at constant concentrations or titrated as stated. The gfp was measured on an Envision plate reader after 5 hours of growth at 37° C. C. violaceum strains were grown aerobically in 1 mL Nutrient Broth plus 1 mM tryptophan at 30° C. […] Cells were collected via centrifugation at 13000 rpm for 15 minutes. Pellets were resuspended in 1 mL of methanol and incubated at 42° C. for 1 hour. Samples were again collected via centrifugation at 13000 rpm for 5 minutes and analyzed for violacein by measuring optical density at 568 nm on a Beckman Coulter DU-800 spectrophotometer. For the dose-response analyses, all assays were performed in triplicate.
However, binding of the longer acyl-tail length AHL molecules disrupts the transcriptional activation ability of CviR.
To determine if 4606-4237 inhibits violacein production specifically by interfering with CviR, 4606-4237 was tested for antagonism of CviR in the recombinant E. coli vioA-gfp assay. For these experiments, C6-HSL was held constant at 500 nM, while 4606-4237 was titrated from 1.3 nM to 100 μM (FIG. 3D). […] Importantly, no C. violaceum components other than CviR are present in the recombinant E. coli assay strain. Thus, any inhibition occurring would be due to a specific interaction between the antagonist molecule 4606-4237 and CviR rather than an interaction of 4606-4237 with some unknown component required for violacein production in C. violaceum.

[4] abbreviates: V. harveyi JMH624 + 20 nM 3OH-C4-HSL.

Like-named read-outs stand apart in the source and are kept apart here.

By IC50 is commonly meant the midpoint of a concentration-inhibition curve.

T1 sequence (D3W065 1-265): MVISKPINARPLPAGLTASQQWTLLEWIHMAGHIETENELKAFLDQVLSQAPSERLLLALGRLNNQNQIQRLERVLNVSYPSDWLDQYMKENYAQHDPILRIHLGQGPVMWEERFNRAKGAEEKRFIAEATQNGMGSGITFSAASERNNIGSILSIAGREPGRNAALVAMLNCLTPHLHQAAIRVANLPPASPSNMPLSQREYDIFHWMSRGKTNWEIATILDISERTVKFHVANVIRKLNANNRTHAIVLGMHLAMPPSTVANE

For the compound `O=C(CCCOc1ccc(Cl)cc1)NC1CCOC1=O` (stereo not shown) [CL, chlorolactone], the “CviR folding and solubility in presence of ligand” value in data set [1] was “promoted CviR31532 folding and solubility”. Also, the IC50 came out at 14 µM in data set [2] (V. harveyi BB960); 0.873 µM in data set [2] (setting [4]); 40 µM in data set [2] (wild type V. harveyi BB120); 377 nM in data set [3] (constant 500 nM C6-HSL, read-out: IC50 for inhibition of vioA-gfp expression).

With `O=C(CCCOc1ccc(Cl)cc1)NC1CCSC1=O` (stereo not shown) [CTL, Chloro-thiolactone], in data set [1], the “CviR folding and solubility in presence of ligand” value was “promoted CviR31532 folding and solubility”. Moreover, the IC50 worked out at 28 µM in data set [2] (V. harveyi BB960), 6 µM in data set [2] (setting [4]), 150 µM in data set [2] (wild type V. harveyi BB120) and 1100 nM in data set [3].

The values are drawn from patent publication US9468624B2, “Small molecule antagonists of bacterial quorum-sensing receptors” (priority 2008, dated 2016).
